The values below come from patent US9439975B2, “Small efficient cell penetrating peptides derived from the scorpion toxin maurocalcine” (Commissariat A L'Energie Atomique Et Aux Energies …, priority 2011, dated 2016).

Experiment [1] relates to CHO cells. Put plainly: Flow cytometry of cell penetration of Cy5-labeled peptides in CHO cells. Particulars: for cell penetration (fluorescence accumulation within cells): 2 hrs incubation, 3 μM peptide, trypsin treatment; for dose-dependent cell penetration: concentrations up to 33 μM. Format: cell-based, Chinese hamster. Here is the method:
Each peptide was labeled with Cy5 according to the manufacturer's protocol (GE HEALTHCARE). Peptides were dissolved at 1 mg/ml in 0.1 M Na2CO3 buffer, pH 9.3. 300 μl of the solubilized peptides were added to Cy5-maleimide containing tubes. The mixtures were incubated during 2 hrs at room temperature and then purified by HPLC using an analytical Vydac C18 column. Elution of the Cy5-labeled peptides was performed with a 10-60% acetonitrile linear gradient containing 0.1% trifluoroacetic acid. The pure peak fractions were lyophilized and peptides quantified by UV spectrophotometer at 649 nm.
(§1) Chinese hamster ovary (CHO) and F98 rat glioma cell lines (from ATCC) were maintained at 37° C. in 5% CO2 in F-12K nutrient medium (INVITROGEN) supplemented with 10% (v/v) heat-inactivated fetal bovine serum (INVITROGEN) and 10,000 units/ml streptomycine and penicillin (INVITROGEN) for the CHO cells, and 2% heat-inactivated fetal bovine serum and 100 units/ml streptomycine and penicillin for the F98 cells
(§2) CHO and F98 cells were incubated with various concentrations of Cy5-labeled peptides in F-12K culture medium without serum at 37° C. for 2 hrs. The cells were then washed with PBS to remove excess extracellular peptide and treated with 1 mg/ml trypsin (INVITROGEN) for 5 min at 37° C. to detach cells from the surface, and centrifuged at 200 g before suspension in PBS. For experiments with the macropinocytosis inhibitor, amiloride, CHO cells were initially washed with F-12K and preincubated for 30 min at 37° C. with 1 mM amiloride (SIGMA). The cells were then incubated for 2 hrs at 37° C. with 1 μM of the Cy5-MCa analogues. For all these experimental conditions, flow cytometry analyses were performed with live cells using a Becton Dickinson flow cytometer LSR II or an Accuri® flow cytometer (BD BIOSCIENCES). Data were obtained and analyzed using FCS express software (DE NOVO) or Accuri® proprietary software CFlow sampler. Live cells were gated by forward/side scattering from a total of 10,000 events.

For experiment [2], the system named is CHO cells. Briefly: Confocal microscopy of subcellular localization of Cy5-labeled peptides in living CHO cells (rhodamine-concanavalin A membrane stain). Format: cell-based, Chinese hamster. The settings on record: 2 hrs; for Cy5-positive pixels rhodamine-positive (colocalization with the plasma membrane indicator): FIG. 3; for Rhodamine-positive staining also Cy5-positive (pixels): Cy5/rhodamine colocalization. On the procedure: (§3) For analysis of the subcellular localization of MCa-Cy5 analogues in living cells, cell cultures were incubated with the fluorescent peptides for 2 hrs, and then washed with phosphate-buffered saline (PBS) alone. The plasma membrane was stained with 5 μg/ml rhodamine-conjugated concanavalin A (MOLECULAR PROBES) for 5 min. Cells were washed once more. Live cells were then immediately analyzed by confocal laser scanning microscopy using a Leica TCS-SPE operating system. Rhodamine (580 nm) and Cy5 (670 nm) were sequentially excited and emission fluorescence were collected in z-confocal planes of […] steps.

In experiment [3] the test system is CHO cells. Put plainly: Amiloride sensitivity of peptide cell entry (macropinocytosis inhibition), flow cytometry. Format: cell-based, Chinese hamster. Particulars: for amiloride-sensitivity of cell penetration: Cy5 as cargo, flow cytometry (FIG. 4); for inhibition of cell penetration by amiloride: 2 hrs, peptide with or without 5 mM amiloride (FIG. 4A). Here is the method: as §2, with “For experiments with the macropinocytosis inhibitor, amiloride, CHO cells were initially washed with F-12K and preincubated for 30 min at 37° C. with 1 mM amiloride (SIGMA). The cells were then incubated for 2 hrs at 37° C. with 1 μM of the Cy5-MCa analogues.” left out
(A flow cytometer gives signals particle by particle.)

The next experiment relates to F98 rat glioma cell line. Briefly: Flow cytometry of dose-dependent cell penetration in F98 cells. Format: cell-based. The settings on record: Cy5-labeled peptides. On the procedure:
as §1, §2
(§4) Cy5-labeled peptides derived from MCaUF1-9 were synthesized and assayed by confocal microscopy or flow cytometry as described in example 1.

For a further experiment, the system named is F98 cell line. Briefly: Confocal microscopy of peptide penetration in F98 cell line, comparison with Tat. The experiment is classed as cell-based, rat. On the procedure:
as §3, §4

Entries after “also recorded” stand apart in the source; their conditions may differ. Square brackets hold non-standard residues; d marks the D form. Primed or numbered codes have the meaning given here. Ends that are not written are not given here. Cy5″ = Cy5 dye, coupled as maleimide to the C-terminal Cys; Abu = CC[C@H](N)C(=O)O; Cy5 = Cy5 label

As for “GTNIEKRaRC (GTNIEKR[Abu]RC) [MCaUF25-33-C]”, the “cell penetration (fluorescence accumulation within cells)” value in the experiment on CHO cells [1] is reported as “have also CPP properties”.

“MCaUF11-33-C-Cy5: MCaUF11-33-C (SEQ ID NO: 142) labeled with Cy5 (KENKD[Abu][Abu]SKK[Abu]KRRGTNIEKR[Abu]RC(Cy5″))”: the “Cy5-positive pixels rhodamine-positive (colocalization with the plasma membrane indicator)” value (shortened to “Cy5-positive pixels rhodamine-positive”) in the experiment with CHO cells [2] is listed as 21.3±2.6%. In addition, the “intracellular / plasma membrane distribution” value in the experiment with CHO cells [2] (confocal microscopy) is “dots appear at higher concentrations within one pole of the cell”. For the same substance, the “amiloride-sensitivity of cell penetration” value (from here on “amiloride-sensitivity”) in the experiment with CHO cells [3] is reported as “higher amiloride-sensitivity than MCaUF1-33-C-Cy5”.

For the substance aLPHLKL ([Abu]LPHLKL) [MCaUF3-9], the “cell penetration (CPP efficiency)” value in the experiment on F98 rat glioma cell line is listed as “ones of the best performing CPPs”; in the experiment on F98 rat glioma cell line (listed as MCaUF3-9(Abu3)), “efficient CPP”. Also, in the experiment with F98 cell line (1 μM peptide), the “penetration compared with 3 μM Tat” value is “proved better CPP than Tat at 3 μM”.

“GDaLPHLKLC (GD[Abu]LPHLKLC) [MCaUF1-9-C]”: in the experiment on CHO cells [1], the “cell penetration (fluorescence accumulation within cells)” value is “showed CPP properties; also recorded: better CPP than MCaUF1-15-C”.

Consider “MCaUF25-33-C-Cy5: MCaUF25-33-C (SEQ ID NO: 146) labeled with Cy5 (GTNIEKR[Abu]RC(Cy5″))”, for which the “intracellular / plasma membrane distribution” value with CHO cells [2] (confocal microscopy) is “dots appear at higher concentrations within one pole of the cell; also recorded: Diffuse membrane labeling”. Besides, in the experiment with CHO cells [3], the “amiloride-sensitivity” value is on record as “higher amiloride-sensitivity than MCaUF1-33-C-Cy5”.

For “MCaUF20-33-C-Cy5: MCaUF20-33-C (SEQ ID NO: 144) labeled with Cy5 (K[Abu]KRRGTNIEKR[Abu]RC(Cy5″))”, the “Rhodamine-positive staining also Cy5-positive (pixels)” value in the experiment with CHO cells [2] is listed as “best performing”. For the same substance, in the experiment with CHO cells [2] (confocal microscopy), the “intracellular / plasma membrane distribution” value is listed as “Diffuse membrane labeling”. Moreover, in the experiment with CHO cells [3], the “amiloride-sensitivity” value was “enhance rather than inhibit the cell penetration”.

Take “SKKaKRRGTNIEKRaR (SKK[Abu]KRRGTNIEKR[Abu]R) [MCaUF18-33]”: in the experiment with CHO cells [3], the “amiloride-sensitivity” value is “macropinocytosis entry-independent”.

GDaLPHLKL (GD[Abu]LPHLKL) [MCaUF1-9]: the dose-dependent cell penetration result with CHO cells [1] (2 hrs) is reported as “penetrates better at low concentration”. For the same substance, the “cell penetration (CPP efficiency)” value in the experiment with F98 rat glioma cell line is “ones of the best performing CPPs”. Further, the “penetration compared with 3 μM Tat” value in the experiment on F98 cell line (3 μM peptide) was “proved better CPP than Tat at 3 μM”.

Take “MCaUF1-20-C-Cy5: MCaUF1-20-C (SEQ ID NO: 134) labeled with Cy5 (GD[Abu]LPHLKL[Abu]KENKD[Abu][Abu]SKKC(Cy5″))”: the dose-dependent cell penetration result in the experiment on CHO cells [1] (2 hrs) is listed as “performing as well as MCaUF8-33-C-Cy5”. Further, in the experiment with CHO cells [2], the “Cy5-positive pixels rhodamine-positive” value is given as 30.4±1.4%.

As to “MCaUF1-33-C-Cy5: MCaUF1-33-C (SEQ ID NO: 140) labeled with Cy5 on the C-terminal Cys (GD[Abu]LPHLKL[Abu]KENKD[Abu][Abu]SKK[Abu]KRRGTNIEKR[Abu]RC(Cy5))”, the “cell penetration (fluorescence accumulation within cells)” value with CHO cells [1] was “penetrated efficiently within CHO cells”. Moreover, in the experiment with CHO cells [1] (2 hrs), the dose-dependent cell penetration entry is recorded as “least-performing cell penetrating peptide”. Besides, the “Cy5-positive pixels rhodamine-positive” value with CHO cells [2] is 10.1±2.6%. Moreover, in the experiment with CHO cells [2] (confocal microscopy), the “degree of accumulated cell fluorescence” value was “penetrate the least”. Further, the “inhibition of cell penetration by amiloride” value with CHO cells [3] is given as 19.6%.

Turning to “GDaWPHLKL (GD[Abu]WPHLKL) [MCaUF1-9(Abu3-W4)]”, in the experiment on F98 cell line (1 μM peptide), the “penetration compared with 3 μM Tat” value was “proved better CPP than Tat at 3 μM”.

Turning to “GDaLPHLKLaKENKDC (GD[Abu]LPHLKL[Abu]KENKDC) [MCaUF1-15-C]”, in the experiment on CHO cells [1], the “cell penetration (fluorescence accumulation within cells)” value is recorded as “showed CPP properties”.

“MCaUF8-33-C-Cy5: MCaUF8-33-C (SEQ ID NO: 141) labeled with Cy5 (KL[Abu]KENKD[Abu][Abu]SKK[Abu]KRRGTNIEKR[Abu]RC(Cy5″))”: the dose-dependent cell penetration result in the experiment on CHO cells [1] (2 hrs) is on record as “did not show any sign of saturation; also recorded: no saturation of cell entry”. In the experiment on CHO cells [2] (confocal microscopy), the “intracellular / plasma membrane distribution” value is listed as “dots appear at higher concentrations within one pole of the cell”.

On to “MCaUF14-33-C-Cy5: MCaUF14-33-C (SEQ ID NO: 143) labeled with Cy5 (KD[Abu][Abu]SKK[Abu]KRRGTNIEKR[Abu]RC(Cy5″))”, for which, in the experiment on CHO cells [2], the “Rhodamine-positive staining also Cy5-positive (pixels)” value is listed as “best performing” and the “Cy5-positive pixels rhodamine-positive” value is given as “higher values of colocalization”.

Turning to KDalKHLQR (KD[Abu]IKHLQR) [HadUF3-11], the “cell penetration (CPP efficiency)” value in the experiment with F98 rat glioma cell line is listed as “ones of the best performing CPPs”; in the experiment on F98 rat glioma cell line (listed as HadUF3-9(Abu5)), “perform better as CPP than the maurocalcine derived peptide MCaUF1-9(Abu3)”.

In the case of “SEKDalKHLQR (SEKD[Abu]IKHLQR) [HadUF1-11]”, the “cell penetration (CPP efficiency)” value with F98 rat glioma cell line was “ones of the best performing CPPs”; in the experiment on F98 rat glioma cell line (listed as HadUF1-11(Abu5)), “perform better as CPP than the maurocalcine derived peptide MCaUF1-9(Abu3)”. In the experiment with F98 cell line (1 μM peptide), the “penetration compared with 3 μM Tat” value is reported as “proved better CPP than Tat at 3 μM”.

Consider “MCaUF14-25-C-Cy5: MCaUF14-25-C (SEQ ID NO: 139) labeled with Cy5 (KD[Abu][Abu]SKK[Abu]KRRGC(Cy5″))”, for which the dose-dependent cell penetration entry with CHO cells [1] (2 hrs) is “yields the greatest fluorescence accumulation”. Also, the “intracellular / plasma membrane distribution” value in the experiment on CHO cells [2] (confocal microscopy) is recorded as “sub-plasma membrane rim localization was more evident”. The “amiloride-sensitivity” value in the experiment on CHO cells [3] was “higher amiloride-sensitivity than MCaUF1-33-C-Cy5”.

As for “MCaUF22-33-C-Cy5: MCaUF22-33-C (SEQ ID NO: 145) labeled with Cy5 (KRRGTNIEKR[Abu]RC(Cy5″))”, the “Rhodamine-positive staining also Cy5-positive (pixels)” value in the experiment with CHO cells [2] is recorded as “best performing”. For the same substance, in the experiment with CHO cells [2] (confocal microscopy), the “intracellular / plasma membrane distribution” value is recorded as “direct plasma membrane labeling”.

Take “MCaUF18-33-C-Cy5: MCaUF18-33-C (SEQ ID NO: 137) labeled with Cy5 (SKK[Abu]KRRGTNIEKR[Abu]RC(Cy5″))”: the dose-dependent cell penetration result in the experiment with CHO cells [1] (2 hrs) was “performed drastically better than the other truncated peptides”. The “Rhodamine-positive staining also Cy5-positive (pixels)” value in the experiment on CHO cells [2] is listed as “best performing”. Moreover, the “amiloride-sensitivity” value in the experiment with CHO cells [3] was “enhance rather than inhibit the cell penetration”.

“GDWLPHLKL (MCa1-9, C3W variant) [MCaUF1-9(W3)]”: the “cell penetration (CPP efficiency)” value in the experiment on F98 rat glioma cell line was “ones of the best performing CPPs”. The “penetration compared with 3 μM Tat” value in the experiment with F98 cell line (1 μM peptide) is “proved better CPP than Tat at 3 μM”.

As for “MCaUF1-9-C-Cy5: MCaUF1-9-C (SEQ ID NO: 136, GDaLPHLKLC) labeled with Cy5 (GD[Abu]LPHLKLC(Cy5″))”, in the experiment on CHO cells [1] (2 hrs), the “concentration with detectable cell penetration” value is on record as 10 nM and the dose-dependent cell penetration entry is reported as “best performing peptide for cell penetration at low concentrations”. In addition, the “Cy5-positive pixels rhodamine-positive” value in the experiment with CHO cells [2] is “higher values of colocalization”. Besides, the “intracellular / plasma membrane distribution” value in the experiment on CHO cells [2] (confocal microscopy) was “dots appear at higher concentrations within one pole of the cell”.

As for “MCaUF1-15-C-Cy5: MCaUF1-15-C (SEQ ID NO: 135) labeled with Cy5 (GD[Abu]LPHLKL[Abu]KENKDC(Cy5″))”, in the experiment with CHO cells [3], the “inhibition of cell penetration by amiloride” value was determined as 39% and the “amiloride-sensitivity” value was “higher amiloride-sensitivity than MCaUF1-33-C-Cy5”.

Turning to “KDaaSKKaKRRG (KD[Abu][Abu]SKK[Abu]KRRG) [MCaUF14-25]”, the dose-dependent cell penetration entry in the experiment with CHO cells [1] (2 hrs) is given as “yields the greatest cell entry of the dye”.
